According to patent US20250034150A1, “BTK INHIBITORS” (BIOGEN MA INC., priority 2021, published 2025):
Like-named read-outs stand apart in the source and are kept apart here.

Experiments:
BTK = target: T1, BTK (Homo sapiens, UniProt Q06187); assay: In Vitro BTK Kinase Assay: Btk-PolyGAT-LS Assay; assay type: biochemical; settings: active BTK enzyme 0.25 nM, polyGAT 100 nM, 30 minutes, TRF readout; read-out: In Vitro BTK Kinase Assay IC50 Score
T1 construct: purchased Upstate 14-552
Procedure, shortened: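 Active BTK at 0.25 nM phosphorylated 100 nM fluorescein-polyGAT peptide at 10 μM ATP for 30 minutes. Buffer was Tris pH 7.5 with MgCl2, DTT, Triton X-100 and casein, and reactions were stopped with EDTA. Phospho-peptide was detected by Tb-PY20 antibody TR-FRET, and IC50 came from a four-parameter fit normalized to DMSO and EDTA controls.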

[1] = system: CD69 expression on CD19+ B cells in human whole blood; assay: In Vitro whole blood CD69 Assay; assay type: cell-based; settings: B-cell, read-out: In Vitro HWB CD69 Assay IC50 Score
Procedure, shortened: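 Heparinized healthy-donor human whole blood was preincubated with compound (0.1% DMSO) for 30 min at 37 °C. Stimulation used 0.1 µg/mL anti-IgD-dextran or 20 µg/mL rabbit F(ab′)2 anti-IgD for 18–22 h at 37 °C. CD69 on gated CD19+ B cells was then measured by flow cytometry.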

[2] = human heparinized whole blood, anti-human IgD stimulation overnight, CD19+ B cells, flow cytometry

T1 sequence (Q06187 whole entry): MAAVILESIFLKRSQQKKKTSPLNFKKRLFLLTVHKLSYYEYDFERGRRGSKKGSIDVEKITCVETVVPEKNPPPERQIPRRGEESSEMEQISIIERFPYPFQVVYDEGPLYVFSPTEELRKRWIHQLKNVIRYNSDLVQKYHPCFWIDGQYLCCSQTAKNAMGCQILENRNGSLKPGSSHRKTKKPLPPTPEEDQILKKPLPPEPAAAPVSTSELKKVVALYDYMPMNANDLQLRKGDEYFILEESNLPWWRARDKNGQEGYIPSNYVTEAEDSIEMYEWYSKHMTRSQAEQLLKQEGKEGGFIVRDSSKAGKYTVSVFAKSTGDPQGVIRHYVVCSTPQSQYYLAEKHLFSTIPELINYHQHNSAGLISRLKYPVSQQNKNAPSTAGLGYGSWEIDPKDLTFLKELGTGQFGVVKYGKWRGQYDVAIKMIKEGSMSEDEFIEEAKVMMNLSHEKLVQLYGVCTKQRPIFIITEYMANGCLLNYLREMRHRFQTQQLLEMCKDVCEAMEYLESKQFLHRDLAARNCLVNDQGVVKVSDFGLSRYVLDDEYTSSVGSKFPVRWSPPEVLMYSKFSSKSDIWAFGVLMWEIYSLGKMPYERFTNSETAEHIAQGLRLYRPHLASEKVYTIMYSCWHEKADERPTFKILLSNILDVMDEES

Row | Compound | IC50 (BTK) [nM] | IC50 [1, 2] [nM] | IC50 ([1]; Homo sapiens) [nM]
1 | Cn1cc(-c2cn3nccc3c(N3CCC(C)(CNC(=O)c4cn(C(C)(C)C)nn4)CC3)n2)cn1 [Example 44, 1-(tert-butyl)-N-((4-methyl-1-(6-(1-methyl-1H-pyrazol-4-yl)pyrazolo[1,5-a]pyrazin-4-yl)piperidin-4-yl)methyl)-1H-1,2,3-triazole-4-carboxamide] | 10 to 1000 | 1000 to 10000 | 
2 | Cn1cc(-c2cn3nccc3c(N3CCC(C)(CNC(=O)c4nc(C(C)(C)C)no4)CC3)n2)cn1 [Example 47, 3-(tert-butyl)-N-((4-methyl-1-(6-(1-methyl-1H-pyrazol-4-yl)pyrazolo[1,5-a]pyrazin-4-yl)piperidin-4-yl)methyl)-1,2,4-oxadiazole-5-carboxamide] | 1 to 10 | 1000 to 10000 | 
3 | Cn1cc(-c2cc3nccn3c(-c3ccc(CNC(=O)c4nnn(C(C)(C)C)n4)cc3)n2)cn1 [Example 58, 2-(tert-butyl)-N-(4-(7-(1-methyl-1H-pyrazol-4-yl)imidazo[1,2-c]pyrimidin-5-yl)benzyl)-2H-tetrazole-5-carboxamide] | < 1 | < 1000 | 
4 | C[C@@H]1C(c2nc(C(=O)NCc3ccc(-c4nc(-c5cnn(C)c5)cc5nccn45)cc3)no2)[C@@H]1C (mixture of isomers) [Example 62, 5-(2,3-cis-dimethylcyclopropyl)-N-(4-(7-(1-methyl-1H-pyrazol-4-yl)imidazo[1,2-c]pyrimidin-5-yl)benzyl)-1,2,4-oxadiazole-3-carboxamide] | 1 to 10 |  | 1000 to 10000
5 | Cn1cc(-c2cn3ncnc3c(N3CCC(CNC(=O)c4cn(C(C)(C)C)nn4)CC3)n2)cn1 [Example 74, 1-(tert-butyl)-N-((1-(6-(1-methyl-1H-pyrazol-4-yl)-[1,2,4]triazolo[1,5-a]pyrazin-8-yl)piperidin-4-yl)methyl)-1H-1,2,3-triazole-4-carboxamide] | 10 to 1000 | 1000 to 10000 | 

The next lines start with results.

Row | IC50 (BTK) [nM] | IC50 [1, 2] [nM] | Compound | IC50 ([1]; Homo sapiens) [nM]
6 | < 1 | < 1000 | Cn1cc(-c2cn3nccc3c(-c3ccc(CNC(=O)c4coc(C(C)(C)C)n4)c(F)c3F)n2)cn1 [Example 90, 2-(tert-butyl)-N-(2,3-difluoro-4-(6-(1-methyl-1H-pyrazol-4-yl)pyrazolo[1,5-a]pyrazin-4-yl)benzyl)oxazole-4-carboxamide] | 
7 | 1 to 10 | 1000 to 10000 | Cn1cc(-c2cn3nccc3c(-c3ccc(CNC(=O)c4coc(C(C)(C)C)n4)cc3F)n2)cn1 [Example 109] | 
8 | 1 to 10 | 1000 to 10000 | CN1CCN(c2cn3nccc3c(-c3ccc(CNC(=O)c4nc(C(C)(C)C)no4)c(F)c3)n2)CC1 [Example 118, 3-(tert-butyl)-N-(2-fluoro-4-(6-(4-methylpiperazin-1-yl)pyrazolo[1,5-a]pyrazin-4-yl)benzyl)-1,2,4-oxadiazole-5-carboxamide] | 
9 | 1 to 10 | 1000 to 10000 | Cn1cc(-c2cn3nccc3c(-c3cc(F)c(CNC(=O)c4cnn(C(C)(C)C)n4)cc3F)n2)cn1 [Example 97, 2-(tert-butyl)-N-(2,5-difluoro-4-(6-(1-methyl-1H-pyrazol-4-yl)pyrazolo[1,5-a]pyrazin-4-yl)benzyl)-2H-1,2,3-triazole-4-carboxamide] | 
10 | < 1 | < 1000 | Cn1cc(-c2cn3nccc3c(-c3ccc(CNC(=O)c4cn(C(C)(C)C)nn4)c(C(F)F)c3)n2)cn1 [Example 105, 1-(tert-butyl)-N-(2-(difluoromethyl)-4-(6-(1-methyl-1H-pyrazol-4-yl)pyrazolo[1,5-a]pyrazin-4-yl)benzyl)-1H-1,2,3-triazole-4-carboxamide] | 
11 | < 1 | < 1000 | Cn1cc(-c2cn3nccc3c(-c3ccc(CNC(=O)c4noc(C(C)(C)C)n4)c(C(F)F)c3)n2)cn1 [Example 86, 5-(tert-butyl)-N-(2-(difluoromethyl)-4-(6-(1-methyl-1H-pyrazol-4-yl)pyrazolo[1,5-a]pyrazin-4-yl)benzyl)-1,2,4-oxadiazole-3-carboxamide] | 
